Experiment [1] deals with glycine site coupled to the NMDA ionophore complex. The conditions noted are these: literature citations; cited from earlier work.
For experiment [2], the target named is T1, glycine site of the NMDA receptor complex (Rattus norvegicus, UniProt P35439).
T1 construct: Crude synaptic (P2) membranes are prepared from rat forebrains; from tissue; host or cells: rat forebrain (male Wistar), crude synaptic (P2) membranes, Triton X-100 washed
Description: In vitro [3H]-glycine binding to rat brain membranes (Test 1). The note with it: 50% displacement of specific [3H]-glycine binding; 50 nM [3H]-glycine, 4° C., 30 min. On the set-up: species or system rat (male Wistar). The protocol:
The compounds according to the invention were tested as regards the affinity for one or more of the different types of excitatory amino acid receptors and studied in simple radioligand binding experiments. In essence, the method involves incubation of a particular selected radio-labelled ligand and the particular specific substance to be investigated with brain homogenates which contain the receptor. Measurement of receptor occupancy is made by determination of the specific radioactivity bound to the homogenate.
This will make them useful in the treatment of any of the numerous indications caused by hyperactivity of excitatory amino acids.
The glycine site binding activity of these compounds of the present invention can be illustrated by determining their capability for displacing radioactively labelled glycine from the glycine site.
The displacement activity of the compounds may be shown by determining the IC50 value which represents the concentration (μM) which causes a displacement of 50% of the specific binding of [^3 H]-glycine.
In vitro [^3 H]-Glycine Binding to Rat Brain Membranes (Test 1)
The membrane preparation and assay of specific [^3 H]-glycine binding is based upon methodology described by Haring et al. (1991) J. Neurochem. 57, 323-332 and Yoneda et al. (1991) J. Neurochem. 55, 237-244.
All steps are performed at 4° C. Buffers are prepared fresh each week from distilled, deionized water and filtered through sterile 0.2 μm membranes to eliminate artifacts due to microbial contamination. Crude synaptic (P2) membranes are prepared from rat forebrains freshly dissected from male Wistar rats and washed 4 times with low ionic strength buffer. On the day of the assay these preparations are additionally washed with buffer containing a low concentration (0.08% g/g) of Triton X-100, and then twice more in the absence of this detergent. The procedure is aimed at the disruption of synaptic membrane vesicles and removal of endogenous amino acids.
Specific radioligand binding is measured by incubating membranes (400-600 μg/ml of protein) with 50 nM [^3 H]-glycine in the presence or absence of 1 mM of unlabelled glycine at 4° C. for 30 min. Free and bound ligand are separated by centrifugation. Each pellet is rinsed 2× and bound radioactivity measured by liquid scintillation counting. Test substances are substituted for Unlabelled glycine in the assay.

Experiment [3] has as its system convulsions induced by i.c.v. infusion of NMDA. Briefly: Convulsions induced by i.c.v. infusion of NMDA, TV50 (Test 2). The note with it: dose infused i.c.v. per minute with NMDA to increase time to onset of clonic seizures by 50%. It counts as in vivo, mouse (male NMRI). The procedure:
The glycine antagonists are co-infused with NMDA and their anti-convulsive effect is measured by determining a) the TV50 value which represents the dose (μg/kg) of the glycine antagonist that has to be infused per minute in order to increase time to onset of clonic seizures by 50%, b) the ED50 value which represents the dose (μg/kg) of the glycine antagonist that has to be infused per minute in order to protect 50% of the animals against clonic seizures for 150 seconds after the start of i.c.v. infusion.
Convulsions induced by i.c.v. infusion of NMDA (Test 2 & 3)
58.84 μg/ml (1 nmol in 2.5 μl) of NMDA (Sigma) dissolved in 0.9% NaCl is co-infused i.c.v. with a glycine antagonist at a speed of 5 μl/min. Infusion is performed through a cannula placed 1 mm posterior and 1 mm lateral to the Bregma point. The cannula is injected 4.3 mm into the skull of male NMRI mice weighing 25 g (range 23-27 g). Placement and length of the cannula into the skull is fixed by a plate positioned 4.3 mm from the point of the cannula. The infusion is stopped after the appearance of clonic seizures in all extremities or 150 seconds after the start time of the infusion. At least 5 doses of each glycine antagonist are tested using 8 mice per dose.

For orientation: IC50 means the point on the concentration scale where inhibition reaches its midpoint. Read a low IC50 as greater potency.

Molecules are shown by their SMILES.

As to `O=C(O)c1cc(O)c2ccc(Cl)cc2n1` [Example 7-Cl-Kyn, 7-chloro-kynurenic acid], the “activity at the glycine site (agonist/antagonist, in words)” value (shortened to “activity … (agonist/antagonist, in words)”) in experiment [1] was “quite strong antagonists”.
As to `NC1CCN(O)C1=O` (stereo not shown) [HA-966, 3-amino-1-hydroxy-2-pyrrolidone], in experiment [1], the “activity … (agonist/antagonist, in words)” value is given as “weak antagonists”.
`C[C@@H](N)C(=O)O` [D-alanine]: the “activity … (agonist/antagonist, in words)” value in experiment [1] is given as “strong agonist activity”.
Regarding `CN1CCN(C2c3ccccc3-c3[nH]c(=O)c(=O)[nH]c32)CC1` (stereo not shown) [Example 18, 9-(4-Methyl-1-piperazinyl)-9H-indeno[1,2-b]pyrazine-2,3(1H,4H)-dione], the IC50 in experiment [2] was found to be 150 nM. Also, in experiment [3], the “Test 2 TV50” value was 4.5 µg/kg.
For `O=C1c2ccccc2-c2[nH]c(=O)c(=O)[nH]c21` [Example 2, 9H-Indeno[1,2-b]pyrazine-2,3,9(1H,4H)-trione], the half-maximal inhibitory concentration (IC50) in experiment [2] is 920 nM. Besides, in experiment [3], the “Test 2 TV50” value was 44 µg/kg.
In experiment [2], `O=c1cnc2c([nH]1)-c1ccccc1C21OCCO1` [Example 6, 9H-Indeno[1,2-b]pyrazine-3,9(4H)-dione 9-ethylene acetal] showed an IC50 of 3700 nM.
As for `N[C@@H]1CONC1=O` [D-cycloserine], the “activity … (agonist/antagonist, in words)” value in experiment [1] was “partial agonists”.
With `N#Cc1cc2[nH]c(=O)c(=O)[nH]c2cc1[N+](=O)[O-]` [CNQX, 6-cyano-7-nitroquinoxaline-2,3-dione], the “activity … (agonist/antagonist, in words)” value in experiment [1] was “weak antagonists”.
`O=c1[nH]c2c([nH]c1=O)C(O)c1ccccc1-2` (stereo not shown) [Example 11, 9-Hydroxy-9H-indeno[1,2-b]pyrazine-2,3(1H,4H) -dione] showed an IC50 in experiment [2] of 920 nM. Further, the “Test 2 TV50” value in experiment [3] was 5.0 µg/kg.
As to `N[C@H](CO)C(=O)O` [D-serine], the “activity … (agonist/antagonist, in words)” value in experiment [1] is reported as “strong agonist activity”.
